12 molecules from US6090945A, “Tetrahydro-beta-carbolines” (Eli Lilly and Company, priority 1998, dated 2000) can be followed below.

One assay has as its target 5-HT2 receptor (Rattus norvegicus, UniProt P14842). Kind of assay: 5-HT2 radioligand binding assay ([3H]ketanserin displacement). On the set-up: species or system rat (Sprague-Dawley cerebral cortex).
In assay [1] the target is T1, cloned rat 5-HT2B receptor (Rattus norvegicus, UniProt P30994).
T1 construct: expressed in transfected cells
T1 sequence (P30994 whole entry): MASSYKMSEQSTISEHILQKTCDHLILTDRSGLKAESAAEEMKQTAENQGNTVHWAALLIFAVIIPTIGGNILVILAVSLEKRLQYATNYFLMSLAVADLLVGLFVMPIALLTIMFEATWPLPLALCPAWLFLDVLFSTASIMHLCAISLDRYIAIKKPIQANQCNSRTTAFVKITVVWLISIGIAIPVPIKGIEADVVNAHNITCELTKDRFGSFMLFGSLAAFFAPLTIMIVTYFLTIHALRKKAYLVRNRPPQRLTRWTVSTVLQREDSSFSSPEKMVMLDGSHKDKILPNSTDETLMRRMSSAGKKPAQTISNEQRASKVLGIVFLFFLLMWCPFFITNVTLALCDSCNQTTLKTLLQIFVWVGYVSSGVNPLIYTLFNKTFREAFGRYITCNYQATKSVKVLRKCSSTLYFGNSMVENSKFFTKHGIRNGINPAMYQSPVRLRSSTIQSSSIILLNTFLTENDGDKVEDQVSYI
Kind of assay: 5-HT2B radioligand binding ([3H]5-HT), cloned rat receptor. The conditions noted are these: [3H]5-HT 2 nM, read-out: Rat 2B binding (IC50 converted to Ki).
Procedure: (§1) RAdioligand Binding Studies for 5-HT2 B:
Membrane preparation from transformed cells. Suspension cells expressing the cloned rat 5-HT2B receptor were harvested by centrifugation at 200×g for 15 min at 4° C. […] Membranes for the binding assays were prepared by vortexing the pellet in 50 mM Tris-HCl, pH 7.4 (0.5×10^9 cells/30 ml). The tissue suspension was then centrifuged at 39,800×g for 10 min at 4° C. This procedure was repeated for a total of three washes, with a 10 minute incubation at 37° C. between the first and second wash.
[^3 H]5-HT binding studies. Binding assays were automated using a Biomek 1000 (Beckman Instruments, Fullerton, Calif.) and were performed in triplicate in 0.8 ml total volume. Membrane suspension, 200 μl, (0.04-0.27 mg protein) and 200 μl of drug dilution in water were added to 400 μl of 67 mM Tris-HCl, pH 7.4, containing [^3 H]5-HT, pargyline, CaCl2, and L-ascorbic acid. Final concentrations of pargyline, CaCl2 and L-ascorbic acid were 10 μM, 3 mM and 0.1%, respectively. […] The amount of [^3 H]5-HT trapped on the filters was determined by liquid scintillation spectrometry (Ready Protein and Beckman LS 6000IC, Beckman Instruments, Fullerton, Calif.). For the saturation experiments, actual free radioligand concentrations were determined by sampling the supernatant of parallel saturation experiments in which bound radioactivity had been separated by centrifugation. […] Protein was determined by the method of Bradford, using bovine serum albumin as the standard.
(§2) The Kd and Bmax values from the saturation assays were determined for best fit to a one-site or a two-site binding model using a partial F-test. […] The IC50 values from the competition assays, the binding parameters for the IP3 standard curve and the EC50 and Emax values from the IP3 assays were determined by nonlinear regression analysis of four parameter logistic equations (Systat, Systat Inc, Evanston, Ill.). […]

The target of another assay is Human 2B (Homo sapiens, UniProt P41595). The experiment in a line: radioligand binding, human 2B. As to conditions: read-out: Human 2B binding (IC50 converted to Ki).
Chain of Human 2B (P41595 whole entry): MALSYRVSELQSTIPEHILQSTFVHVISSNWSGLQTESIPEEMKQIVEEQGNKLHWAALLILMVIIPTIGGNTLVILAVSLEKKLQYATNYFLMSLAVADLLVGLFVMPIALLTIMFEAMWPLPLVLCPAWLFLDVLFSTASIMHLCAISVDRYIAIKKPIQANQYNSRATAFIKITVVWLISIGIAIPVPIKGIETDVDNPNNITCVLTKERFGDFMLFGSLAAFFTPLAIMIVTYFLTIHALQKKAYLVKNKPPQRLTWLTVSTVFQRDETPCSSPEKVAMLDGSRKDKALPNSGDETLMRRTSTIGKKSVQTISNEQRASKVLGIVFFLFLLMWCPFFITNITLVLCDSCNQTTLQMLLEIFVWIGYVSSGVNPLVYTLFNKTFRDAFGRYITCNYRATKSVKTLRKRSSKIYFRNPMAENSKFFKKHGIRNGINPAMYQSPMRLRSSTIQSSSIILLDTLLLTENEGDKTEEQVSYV
The target in the next assay is Human 2A (Homo sapiens, UniProt P28223). The experiment in a line: radioligand binding, human 2A. The conditions noted are these: read-out: Human 2A binding (IC50 converted to Ki). On the procedure: The Kd and Bmax values from the saturation assays were determined for best fit to a one-site or a two-site binding model using a partial F-test. De Lean, A., A. A. Hancock, and R. J. Lefkowitz, Mol. Pharmacol. 21: 5-16 (1981). The following equation was used for a one-site binding model, [formula] where Bound=amount of [^3 H]5-HT specifically bound, Bmax =maximum number of binding sites, Kd =equilibrium dissociation constant and [L]=free concentration of [^3 H]5-HT, or a two-site binding model, [formula] where Bound=amount of [^3 H]5-HT specifically bound, Bmax1 =maximum number of high affinity binding sites, Bmax2 =maximum number of low affinity binding sites, Kd1 =equilibrium dissociation constant for the high affinity site, Kd2 =equilibrium dissociation constant for the low affinity site and [L]=free concentration of [^3 H]5-HT. The IC50 values from the competition assays, the binding parameters for the IP3 standard curve and the EC50 and Emax values from the IP3 assays were determined by nonlinear regression analysis of four parameter logistic equations (Systat, Systat Inc, Evanston, Ill.). De Lean, A., A. A. Hancock, and R. J. Lefkowitz, Mol. Pharmacol., 21: 5-16 (1981). The IC50 values were converted to Ki values using the Cheng-Prusoff equation. Cheng, Y., and W. H. Prusoff, Biochem. Pharmacol., 22: 3099-3108 (1973).
Chain of Human 2A (P28223 whole entry): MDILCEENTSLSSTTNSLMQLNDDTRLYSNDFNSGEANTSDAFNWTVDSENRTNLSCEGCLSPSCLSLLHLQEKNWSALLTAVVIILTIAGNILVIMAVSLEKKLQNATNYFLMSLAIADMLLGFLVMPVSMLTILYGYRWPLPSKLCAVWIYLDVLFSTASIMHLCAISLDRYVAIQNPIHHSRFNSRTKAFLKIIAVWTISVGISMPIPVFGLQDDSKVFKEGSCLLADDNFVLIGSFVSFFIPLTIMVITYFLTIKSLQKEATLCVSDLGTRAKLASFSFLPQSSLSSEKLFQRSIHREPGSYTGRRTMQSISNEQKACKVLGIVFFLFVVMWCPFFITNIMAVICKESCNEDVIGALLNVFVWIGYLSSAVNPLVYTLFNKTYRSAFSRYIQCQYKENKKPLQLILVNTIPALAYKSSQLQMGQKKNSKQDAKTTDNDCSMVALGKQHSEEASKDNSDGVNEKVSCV

For assay [2], the target named is T2, 5-HT1c receptor (Bos taurus, UniProt A0AAA9SBU1).
T2 sequence (A0AAA9SBU1 33-457): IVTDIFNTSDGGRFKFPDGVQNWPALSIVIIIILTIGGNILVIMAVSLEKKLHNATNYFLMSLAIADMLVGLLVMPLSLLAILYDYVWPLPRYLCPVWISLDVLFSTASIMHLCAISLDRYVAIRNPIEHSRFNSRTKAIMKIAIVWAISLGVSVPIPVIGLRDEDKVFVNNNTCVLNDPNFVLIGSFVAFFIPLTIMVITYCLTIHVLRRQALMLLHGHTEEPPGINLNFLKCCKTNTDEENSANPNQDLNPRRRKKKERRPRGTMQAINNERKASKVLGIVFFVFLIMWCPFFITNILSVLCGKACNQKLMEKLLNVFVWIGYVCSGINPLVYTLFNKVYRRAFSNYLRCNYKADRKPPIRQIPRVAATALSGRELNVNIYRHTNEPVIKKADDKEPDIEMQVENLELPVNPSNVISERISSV
Kind of assay: 5-HT1c radioligand binding assay ([3H]mesulergine displacement). The conditions noted are these: read-out: 5HT1C IC50 (binding displacement); choroid plexus; tritiated mesulergine 2.0 nM; 37° C., 15 minutes.
Procedure: I. Assay for 5-HT1c Affinity
(§3) Beef brain was removed immediately after slaughter, and choroid plexus were dissected over ice. […] Tissues were homogenized in 9 volumes of 0.32 mol/L sucrose and centrifuged at 1,000×g for 10 minutes. The supernatant was centrifuged at 17,000×g for 20 minutes. The pellet was suspended in 100 volumes of 50 mM Tris-HCl (pH7.4), incubated at 37° C. for 10 minutes and centrifuged at 50,000×g for 10 minutes, and the process was repeated three times. The final pellets were frozen at -70° C. and used within 2 weeks. Pellets were rehydrated with physiological buffer prior to use.
(§4) The reactions were terminated by rapid filtration, (Brandel Cell Harvestor), through Whatman GF/B glass filters that had been presoaked in Tris buffer pH 7.4. The filters were then washed 2 times with 5 ml of ice cold Tris buffer pH 7.4. Washed filters were placed in scintillation vials and 10 ml RedySolv, (Brandel), was added and samples were counted in a Searle D-300 beta counter. Means and standard error statistics were calculated for triplicate experimental determinations in certain cases. Mean values were obtained from three or more separate determinations. The incubation time for the reaction mixture was 15 minutes at 37° C.

The test system of assay [3] is 5-HT1c receptor. Described as above. The conditions noted are these: versus 5-HT2, as shown by Table II.
Procedure: I. Assay for 5-HT1c Affinity
as §3, §4
The mark [4] stands for this setting: rat cerebral cortex, tritiated ketanserin 1 nM, 37° C., read-out: 5HT2 IC50 (binding displacement).

Structures are written as SMILES. Where a name gives a salt, the structure may show the parent alone. Read-outs that look alike come from different tables or passages of the source. A value given as a limit tells only on which side of the number the result lay.

Chain of 5-HT2 receptor (P14842 whole entry): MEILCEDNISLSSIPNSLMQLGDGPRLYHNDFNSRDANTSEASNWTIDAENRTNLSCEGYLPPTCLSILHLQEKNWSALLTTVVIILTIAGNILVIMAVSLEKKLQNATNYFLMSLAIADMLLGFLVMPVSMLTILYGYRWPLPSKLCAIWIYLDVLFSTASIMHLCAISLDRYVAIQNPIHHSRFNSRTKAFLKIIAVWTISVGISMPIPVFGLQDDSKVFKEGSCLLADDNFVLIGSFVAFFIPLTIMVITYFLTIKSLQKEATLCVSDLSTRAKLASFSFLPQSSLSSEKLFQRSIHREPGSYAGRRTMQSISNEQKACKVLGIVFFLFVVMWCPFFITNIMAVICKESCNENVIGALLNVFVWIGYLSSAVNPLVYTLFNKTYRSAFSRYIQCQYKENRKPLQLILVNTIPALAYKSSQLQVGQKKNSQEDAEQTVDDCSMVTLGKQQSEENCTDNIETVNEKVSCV
Procedure for Human 2B: as §1
[^3 H]5-HT binding studies. Binding assays were automated using a Biomek 1000 (Beckman Instruments, Fullerton, Calif.) and were performed in triplicate in 0.8 ml total volume. Membrane suspension, 200 μl, (0.04-0.27 mg protein) and 200 μl of drug dilution in water were added to 400 μl of 67 mM Tris-HCl, pH 7.4, containing [^3 H]5-HT, pargyline, CaCl2, and L-ascorbic acid. Final concentrations of pargyline, CaCl2 and L-ascorbic acid were 10 μM, 3 mM and 0.1%, respectively. Tubes were incubated at 37° C. for 15 min or at 0° C. for 2 hours (binding equilibria were verified for both of these conditions), then rapidly filtered using a Brandel cell harvester (Model MB-48R; Brandel, Gaithersburg, Md.) through Whatman GF/B filters which had been presoaked in 0.5% polyethylenimine and precooled with ice-cold 50 mM Tris-HCl, pH 7.4. The filters were then washed rapidly four times with one ml ice-cold 50 mM Tris-HCl, pH 7.4. The amount of [^3 H]5-HT trapped on the filters was determined by liquid scintillation spectrometry (Ready Protein and Beckman LS 6000IC, Beckman Instruments, Fullerton, Calif.). For the saturation experiments, actual free radioligand concentrations were determined by sampling the supernatant of parallel saturation experiments in which bound radioactivity had been separated by centrifugation. […] 5-HT, 10 μM, or 1-naphthylpiperazine (1-NP), 10 μM, defined nonspecific binding. […] Protein was determined by the method of Bradford, using bovine serum albumin as the standard.
as §2

For the molecule `COc1ccc([C@@H](C)[C@@H]2NCCc3c2[nH]c2ccc(C)cc32)cc1OC` (relative stereo) [Example 40], the figures for the 50% inhibitory concentration (IC50) at 5-HT2 receptor (setting [4]) and on 5-HT1c receptor [2] were 293 nM and 171 nM, respectively. In addition, the Ki – broadly, the equilibrium dissociation constant of an inhibitor or competing ligand from its target – in assay [1] was 5.61 nM; at Human 2B, 1.4 nM; at Human 2A, 44.5 nM.

Regarding `COc1ccc([C@@H](C)[C@@H]2NCCc3c2[nH]c2cc(C)c(C)cc32)cc1OC` (relative stereo) [Example 41, (±) 6,7-dimethyl-1-[(3,4-dimethoxyphenyl)-1-ethyl]-1,2,3,4-tetrahydro-9H-pyrido[3,4-b]indole (Z)-2-butenedioate], the IC50 (in general, the concentration needed to halve the response being measured) at 5-HT2 receptor (setting [4]) came out at 173 nM; on 5-HT1c receptor [2] it was 127 nM. The Ki in assay [1] was 6.42 nM; on Human 2B it was 2.01 nM; on Human 2A, 23.1 nM.

With `CC[C@H](c1ccc(OC)c(OC)c1)[C@@H]1NCCc2c1[nH]c1ccc(C)cc21` (relative stereo) [Example 43, (±) 6-methyl-1-[(3,4-dimethoxyphenyl)-1-propyl]-1,2,3,4-tetrahydro-9H-pyrido[3,4-b]indole (Z)-2-butenedioate], the half-inhibitory concentration (IC50) at 5-HT2 receptor (setting [4]) turned out to be 178 nM; at 5-HT1c receptor [2] it was 139 nM. The Ki at Human 2B came to 0.87 nM; at Human 2A, 17.5 nM.

As to `COc1ccc(CC2NCCc3c2[nH]c2c(Br)cc(Br)cc32)cc1OC` (centres unmarked) [Example 3, 6,8-dibromo-1-[(3,4-dimethoxyphenyl)methyl]-1,2,3,4-tetrahydro-9H-pyrido[3,4-b]indole], the IC50 on 5-HT2 receptor (setting [4]) worked out at 900 nM; at 5-HT1c receptor [2] it was 29 nM. Further, the “5-HT1c selectivity (low IC50 in 5-HT1c assay, higher IC50 in 5-HT2 assay)” value (“5-HT1c selectivity” below) in the assay on 5-HT1c receptor [3] is “particularly 5-HT1c selective”.

Consider `COc1ccc(CC2NCCc3c2[nH]c2c(Br)cc(C)cc32)cc1OC.Cl` (centres unmarked) [Example 4, 6-methyl-8-bromo-1-[(3,4-dimethoxyphenyl)-methyl]-1,2,3,4-tetrahydro-9H-pyrido[3,4-b]indole hydrochloride], for which the results for the concentration for half-maximal inhibition (IC50) on 5-HT2 receptor and at 5-HT1c receptor [2] were 132 nM and 20 nM, respectively. For the same molecule, the “5-HT1c selectivity” value in the assay on 5-HT1c receptor [3] is “particularly 5-HT1c selective”.

As for `COc1ccc(CC2NCCc3c2[nH]c2c(F)cc(F)cc32)cc1OC` (centres unmarked) [Example 6, 6,8-difluoro-1-[(3,4-dimethoxyphenyl)-methyl]-1,2,3,4-tetrahydro-9H-pyrido[3,4-b]indole], the IC50 at 5-HT2 receptor (setting [4]) was 168 nM; on 5-HT1c receptor [2] it was 43 nM. In addition, the “5-HT1c selectivity” value in the assay on 5-HT1c receptor [3] is “particularly 5-HT1c selective”.

For the molecule `COc1ccc(CC2NCCc3c2[nH]c2c(Br)c(C)ccc32)cc1OC.Cl` (centres unmarked) [Example 7, 7-methyl-8-bromo-1-[(3,4-dimethoxyphenyl)-methyl]-1,2,3,4-tetrahydro-9H-pyrido[3,4-b]indole hydrochloride], the IC50 at 5-HT2 receptor is above 100 nM; at 5-HT1c receptor [2] it was 5.1 nM. Besides, the “5-HT1c selectivity” value with 5-HT1c receptor [3] is listed as “particularly 5-HT1c selective”.

Consider `COc1ccc(CC2NCCc3c2[nH]c2c3ccc3ccccc32)cc1OC` (centres unmarked) [Example 10, 7,8,9,10-tetrahydro-10-[(3,4-dimethoxyphenyl)methyl]-11H-benzo [g]pyrido[3,4-b]indole], for which the IC50 on 5-HT2 receptor (setting [4]) came to 219 nM; on 5-HT1c receptor [2], 43 nM. In addition, the “5-HT1c selectivity” value with 5-HT1c receptor [3] is “particularly 5-HT1c selective”.

As for `COc1ccc(CC2NCCc3c2[nH]c2ccc(C(C)C)cc32)cc1OC` (centres unmarked) [Example 13, 6-(1-methylethyl)-1,2,3,4-tetrahydro-1-[(3,4-dimethoxyphenyl)methyl]-9H-pyrido[3,4b]indole], the figures for the IC50 on 5-HT2 receptor (setting [4]) and on 5-HT1c receptor [2] were 433 nM and 48 nM, respectively. Moreover, the “5-HT1c selectivity” value in the assay on 5-HT1c receptor [3] was “particularly 5-HT1c selective”.

For the molecule `COc1ccc(CC2NCCc3c2[nH]c2cc(C)cc(C)c32)cc1OC` (centres unmarked) [Example 15, 5,7-dimethyl-1,2,3,4-tetrahydro-1-[(3,4-dimethoxyphenyl)methyl]-9H-pyrido[3,4b]indole hydrochloride], the figures for the IC50 at 5-HT2 receptor (setting [4]) and on 5-HT1c receptor [2] were above 100 nM and 14 nM, respectively. Besides, the “5-HT1c selectivity” value in the assay on 5-HT1c receptor [3] is given as “particularly 5-HT1c selective”.

For `COc1ccc(CC2NCCc3c2[nH]c2cc(C)c(C)cc32)cc1OC` (centres unmarked) [Example 16, 6,7-dimethyl-1,2,3,4-tetrahydro-1-[(3,4-dimethoxyphenyl)methyl]-9H-pyrido[3,4b]indole], the values for the IC50 on 5-HT2 receptor (setting [4]) and on 5-HT1c receptor [2] were 2110 nM and 63 nM, respectively. Also, in the assay with 5-HT1c receptor [3], the “5-HT1c selectivity” value was “particularly 5-HT1c selective”.

Take `COc1ccc(CC2NCCc3c2[nH]c2ccc(C)cc32)c(OC)c1OC` (centres unmarked) [Example 22, 6-methyl-1-[(2,3,4-trimethoxyphenyl)-methyl]-1,2,3,4-tetrahydro-9H-pyrido[3,4-b]indole hydrochloride]: the IC50 on 5-HT2 receptor was 1420 nM; at 5-HT1c receptor [2] it was 30 nM. Moreover, the inhibition constant (Ki) in assay [1] was determined as 5.39 nM.
